In patent US20230286816A1, “LITHIATED SILICON” (KING'S COLLEGE LONDON, priority 2020, published 2023):

Tested on: Wnt/β-catenin cell signalling pathway (downstream target gene Axin2)
Assay: Axin2 expression (qPCR) in cells in medium conditioned with particles
Assay type: cell-based
Settings: 25 mM LiCl, 17IA4 cells
Procedure: Biological activity of released lithium was measured by monitoring activation of Wnt/β-catenin cell signalling pathway by measuring the expression of the pathway's well-known downstream target gene Axin2. The experiment was done with cell medium conditioned with corresponding batch of nanoparticles. Known amounts of LipSi nanoparticles were pelleted with a centrifuge and sterile supernatant was removed. Nanoparticles were dried under tissue culture hood. Cell medium (αMEM supplemented with 10% FBS, 1% antibiotic/antimycotic solution and 25 mM HEPES) was added onto pellet and particles were redispersed with ultrasound. Concentrations of the particles were 0.8 mg/ml (FIG. 6a) and 1.6 mg/ml (FIG. 6b). Vials were incubated in thermoshaker at 37° C. for four days. Particles were centrifuged down and supernatant was collected under sterile conditions. Conditioned medium (supernatant) was filtered with 0.22 μm syringe filter.
20,000 cells/cm^2 of mesenchymal cells (17IA4) were seeded onto 24 well plate. Cells were incubated approximately for 24 hours until 80% confluent and the normal medium was changed to conditioned. Cells were incubated (37° C., 5% CO2) in conditioned medium for 24 h. […] Reported fold changes represent Axin2 expression in the sample compared to Axin2 expression in medium and they are calculated with ΔΔCt method as known in the art.

Compound: [Cl-].[Li+] [LiCl, lithium chloride]
- increase of Axin2 expression compared to medium (experiment of FIG. 6a (with SS9)): 3.2 fold
- increase of Axin2 expression compared to medium (experiment of FIG. 6b (with SS19)): 2.6 fold
